Columns and labels:
[1] = test system: Hsp27; experiment: Hsp27 immunolabeling in UVB-irradiated human skin explants; assay type: cell-based; settings: for Number of Hsp27 positive cells/cm: UVB 2 J/cm2, n = 3
Excerpt: (§1) Heat Schock proteins (Hsp) are cellular protective molecules which contribute to the correct proteinic folding, thus preserving the protein activity. Hsp 27 is a protective chaperone protein very present in the keratinocytes at the basal state. In situation of UV stress, cell increases its rate of protection and Hsp 27 is strongly overexpressed. Hsp70 is a chaperone protein less expressed in a basal state but induced in response to the UV, thermics, mechanics or infectious stress.
(§2) Human skin explants are treated in a similar way to the previous experiment (protection on the catalase activity): taken from a plastic surgery, they are cultivated for 48 h in the presence or not, for control, of teprenone (or trolox) at various concentrations, then irradiated or not using a source UVB (2 J/cm2). After irradiation skin explants were post-treated (24 h) or not with teprenone (or trolox) at the same concentrations.
(§3) Explants were embedded in OCT, sectioned using a freezing microtome, and slide mounted. The mounted specimens were immunolabeled with anti-human Hsp antibody.

[2] = Lipid peroxidation of liposomes using H2O2+FeCl2; assay type: biochemical; settings: for Variation of peroxydation: vs negative control
Experimental: In order to determine the action of teprenone as per the invention, the effect of the active substance on the lipid peroxidation of liposomes was analyzed. The liposomes were used to model cutaneous lipids.
In this method, liposomes are exposed to the test compound and a Fenton oxidative system. The peroxidation is determined by spectrophotometry. Trolox, a known anti-free radical agent, is used as the positive control at the same molar concentration as a teprenone.

[3] = test system: IL8; experiment: IL8 in supernatant of γ-irradiated NHEK cells (ELISA); assay type: cell-based, human; settings: for decrease of IL8: vs irradiated control; for expression of IL8: γ-irradiation 5 Gγ, 4 days
Experimental: (§4) In order to determine the action of teprenone as per the invention, the effect of GGA on the IL8 and VEGF expression was investigated in the supernatants of irradiated (with 5 Gy) NHEK cells. After γ-irradiation, NHEK cells are treated during 4 days with or without GGA at differents concentrations. The amount of IL8 and VEGF present in the cells supernatant is determined with ELISA method.

[4] = test system: catalase; experiment: Catalase activity in human skin explants after UVB (Clairborne-Aebi method); assay type: cell-based; settings: for protective effect on enzymatic activity of catalase: vs UVB; for catalase activity: after UVB 2 J/cm2
Experimental: Human skin explants obtained from a patient having undergone plastic surgery were cultured with or without teprenone or Trolox (positive control) for 48 hours then exposed to UV B radiation (2 J/cm^2). After irradiation, the explants were again cultured in fresh medium with or without teprenone or Trolox for 24 hours. Similars explants were also used in immunolabeling tests on heat shock proteins (HSP) and in the apoptosis study.
Catalase anti-oxidant activity was determined by the Clairborne-Aebi method. Hydrogen peroxide (H2O2) consumption is directly proportional to catalase activity. The consumption was determined by spectrophotometry at 240 nm

[5] = test system: VEGF; experiment: VEGF in supernatant of γ-irradiated NHEK cells (ELISA); assay type: cell-based, human; settings: for decrease of VEGF: vs irradiated control; for expression VEGF: γ-irradiation 5 Gγ, 4 days
Experimental: as §4

[6] = test system: Hsp70; experiment: Hsp70 immunolabeling in UVB-irradiated human skin explants; assay type: cell-based; settings: for Number of Hsp70 positive cells/cm: UVB 2 J/cm2, n = 3
Excerpt: as §1, §2, §3

CC(=O)CCC=C(C)CCC=C(C)CCC=C(C)CCC=C(C)C [Teprenone, 6,10,14,18-tetramethyl-5,9,13-nonadecatetren-2-one]
Hsp27: Protection vs. irradiated (%) ([1]; 0.05 mM): 50%
Hsp27: Protection vs. irradiated (%) ([1]; 0.1 mM): 75%
Hsp27: Protection vs. irradiated (%) ([1]; 0.1 mM, listed as GGA): 75%
Number of Hsp27 positive cells/cm ([1]; 0.05 mM): 530 cells/cm
Number of Hsp27 positive cells/cm ([1]; 0.1 mM): 400 cells/cm
Variation of peroxydation ([2]; concentration 3 · 10^−2%): −75%
Variation of peroxydation ([2]; concentration 3 · 10^−3%): −26%
Variation of peroxydation ([2]; concentration 3 · 10^−4%): −16%
decrease in peroxidation ([2]; concentration 3.10^−2%): 75%
Variation of peroxydation ([2]; concentration 10^−2%): −39%
Variation of peroxydation ([2]; concentration 10^−3%): −20%
decrease of IL8 ([3]; 1.10^−4%): −67%
decrease of IL8 ([3]; 3.10^−5%): −50%
expression of IL8 ([3]; 1 · 10^−4%): 2.12 pg/10^5 cells
expression of IL8 ([3]; 3 · 10^−5%): 3.25 pg/10^5 cells
protective effect on enzymatic activity of catalase ([4]; 0.05 mM): +40%
protective effect on enzymatic activity of catalase ([4]; 0.1 mM): +45%
catalase activity ([4]; 0.05 mM): 125 UI/mg of protein
catalase activity ([4]; 0.1 mM): 130 UI/mg of protein
decrease of VEGF ([5]; 1 · 10^−4%): −47%
decrease of VEGF ([5]; 3 · 10^−5%): −30%
expression VEGF ([5]; 1 · 10^−4%): 3 pg/10⁵ cells
expression VEGF ([5]; 3 · 10^−5%): 3.5 pg/10⁵ cells
Hsp70: Protection vs. irradiated (%) ([6]; 0.05 mM): 66%
Hsp70: Protection vs. irradiated (%) ([6]; 0.1 mM): 100%
Hsp70: Protection vs. irradiated (%) ([6]; 0.1 mM, listed as GGA): 100%
Number of Hsp70 positive cells/cm ([6]; 0.05 mM): 130 cells/cm
Number of Hsp70 positive cells/cm ([6]; 0.1 mM): 40 cells/cm

Source: US20090214607A1, “Topical use of teprenone” (SEDERMA, priority 2005, published 2009)
